Data on 3 compounds can be found in patent publication US9034846B2, “Use of cyclodextrin for treatment and prevention of bronchial inflammatory diseases” (UNIVERSITE DE LIEGE, priority 2004, dated 2015).

Series [1] relates to OVA exposed mice. Nature of the series: Bronchoalveolar lavage differential cell counts, OVA mouse model of asthma. The class given is in vivo. The following applies: for Eosinophils (%) in BAL / Epithelial cells (%) in BAL / Lymphocytes (%) in BAL / Macrophages (%) in BAL / Neutrophils (%) in BAL / Total cells (10^4/ml) in BAL: Table 2. As to the method: (§1) In order to study modulation of airway inflammation, males BALB/c mice of 6 to 8 weeks old were sensitized by intraperitoneal injection of 10 μg ovalbumin (OVA) (Sigma Aldrich, Schnelldorf, Germany) emulsified in aluminum hydroxyde (AlumInject; Perbio, Erembodegem, Belgium) on days 1 and 8. Mice were subsequently exposed to allergens by daily inhalation of an aerosol of OVA 1%, for 30 minutes, generated by ultrasonic nebulizer (Devilbiss 2000), from day 21 to 27. Mice were subjected to inhalation of β-CD, HP-β-CD HP 1, 7.5, 50 mM and HP-β-CD 50 mM 30 minutes before OVA inhalation. Mice were sacrificed performed on day 28 as previously reported by Cataldo and al in Am. J. Pathol 2002; 161(2):491-498.
Immediately after assessment of airway responsiveness, and 24 hours after the last allergen exposure.
(§2) Mices were sacrificed and a bronchoalveolar lavage was performed using 4×1 ml PBS-EDTA 0.05 mM (Calbiochem, Darmstadt, Germany) as previously described by Cataldo D D, Tournoy K G, Vermaelen K et al. in Am J Pathol 2002; 161(2):491-498. Cells were recovered by gentle manual aspiration. After centrifugation of bronchoalveolar fluid (BALF) (1200 rpm for 10 minutes, at 4° C.), the supernatant was frozen at −80° C. for protein assessment and the cell pellet was resuspended in 1 ml PBS-EDTA 0.05 mM. The differential cell counts were performed on cytocentrifuged preparations (Cytospin) after staining with Diff-Quick (Dade, Belgium).

Series [2] has as its system OVA exposed mice. Briefly: Peribronchial eosinophil infiltration (Congo Red), OVA mouse model. The class given is in vivo. The conditions noted are these: after allergen exposure; FIG. 3. As to the method: as §1
(§3) After BAL, the thorax was opened and the left main bronchus was clamped. The left lung was excised and frozen immediately at −80° C. for protein and mRNA extraction. The right lung was infused with 4 ml paraformaldehyde 4%, embedded in paraffin and used for histology. Sections of 5 μm thickness were cut off from paraffin and were stained with haematoxylin-eosin. The extent of peribronchial inflammation was estimated by a score calculated by quantification of peribronchial inflammatory cells, as previously described by Cataldo D D, Tournoy K G, Vermaelen K et al. in Am J Pathol 2002; 161(2):491-498. A value of 0 was adjudged when no inflammation was detectable, a value of 1 when there was occasionally inflammatory cells, a value of 2 when most bronchi were surrounded by a thin layer (1 to 5 cells) of inflammatory cells and a value of 3 when most bronchi were surrounded by a thick layer (>5 cells) of inflammatory cells. Since 5-7 randomly selected tissue sections per mouse were scored, inflammation scores are expressed as a mean value and can be compared between groups. After Congo Red staining, the eosinophilic infiltration in the airway walls was quantified by manual count and reported to the perimeter of epithelial basement membrane defining an eosinophilic inflammatory score.

A further series deals with IL-13. Nature of the series: IL-13 ELISA in BAL and lung protein extracts, OVA mouse model. It counts as in vivo. As to the method:
as §1
The left lung was crushed using a Mikro-Dismembrator (Braun Biotech International, Gmbh Melsungen, Germany). For proteins extraction, the crushed lung tissue was incubated overnight at 4° C. in a solution containing 2M urea, 1M NaCl and 50 mM Tris (pH 7.5) and subsequently centrifuged 15 minutes at 16.000×g. The supernatant was stored at −80° C.
Eotaxin and IL-13 levels were assessed using commercial ELISAs (R&D systems, Abingdon, UK). Eotaxin was measured by incubation in a wheel coated with a primary antibody specifically dedicated to the recognition of the protein and after rinsing, a second antibody against eotaxin, coupled with horse radish peroxydase was used to quantify the amounts of eotaxin in the solution
IL-13 was measured by incubation in a wheel coated with a primary antibody specifically dedicated to the recognition of the protein and after rinsing, a second antibody against IL-13, coupled with horse radish peroxydase was used to quantify the amounts of […] in the solution.
(ELISA stands for enzyme-linked immunosorbent assay.)

Series [3] deals with OVA exposed mice. Nature of the series: Peribronchial inflammation score by histology, OVA mouse model. The class given is in vivo. The method, then: (§4) In order to study modulation of airway inflammation, males BALB/c mice of 6 to 8 weeks old were sensitized by intraperitoneal injection of 10 μg ovalbumin (OVA) (Sigma Aldrich, Schnelldorf, Germany) emulsified in aluminum hydroxyde (AlumInject; Perbio, Erembodegem, Belgium) on days 1 and 8. Mice were subsequently exposed to allergens by daily inhalation of an aerosol of OVA 1%, for 30 minutes, generated by ultrasonic nebulizer (Devilbiss 2000), from day 21 to 27. […] Mice were sacrificed performed on day 28 as previously reported by Cataldo and al in Am. J. Pathol 2002; 161(2):491-498.
as §3

The test system of another series is mice. Nature of the series: BAL differential cell counts after exposure to inhaled CRYSMEB (Table 1). The class given is in vivo, mouse. As to the method: as §2, with “Belgium). […]” for “Belgium).”
Series [4] has as its system OVA exposed mice. Briefly: Bronchial responsiveness to methacholine (Penh, barometric plethysmograph). The following applies: FIG. 10. The class given is in vivo, mouse. The method, then:
as §4
Twenty-four hours after the last allergen exposure, the bronchial hyper responsiveness was determined by measuring the Penh (Enhanced Pause) using a barometric plethysmograph (Emka technologies, Paris) as proposed by Hamelmann, E., et al., Am. J. Respir. Crit. Care Med. 156 (1997) 766-775). The Penh was measured at baseline and […] after the inhalation of increasing doses (25, 50, 75 and 100 mM) of methacholine (Mch).

Where [5] appears, read: reference therapy, concentration not given.
Where [6] appears, read: exposure to aerosolized CRYSMEB 30 min/day during 7 days.

Regarding `C[C@@H]1C[C@H]2[C@@H]3C[C@H](F)C4=CC(=O)C=C[C@]4(C)[C@@]3(F)[C@@H](O)C[C@]2(C)[C@@]1(O)C(=O)SCF` [Fluticasone, reference compound], in the series with OVA exposed mice [1] (setting [5]), the “Eosinophils (%) in BAL” value is 32.92 ± 7.306 %, the “Epithelial cells (%) in BAL” value worked out at 22.85 ± 5.343%, the “Lymphocytes (%) in BAL” value was determined as 1.68 ± 0.7115% and the “Macrophages (%) in BAL” value turned out to be 40.52 ± 3.122%. In the series on OVA exposed mice [1] (setting [5]), the “Neutrophils (%) in BAL” value is reported as 1.85 ± 1.093% and the “Total cells (10^4/ml) in BAL” value is on record as 75.92 ± 11.922 10^4/ml.

For the compound `OC[C@H]1O[C@@H]2O[C@H]3[C@H](O)[C@@H](O)[C@@H](O[C@H]4[C@H](O)[C@@H](O)[C@@H](O[C@H]5[C@H](O)[C@@H](O)[C@@H](O[C@H]6[C@H](O)[C@@H](O)[C@@H](O[C@H]7[C@H](O)[C@@H](O)[C@@H](O[C@H]8[C@H](O)[C@@H](O)[C@@H](O[C@H]1[C@H](O)[C@H]2O)O[C@@H]8CO)O[C@@H]7CO)O[C@@H]6CO)O[C@@H]5CO)O[C@@H]4CO)O[C@@H]3CO` [β-CD, β-cyclodextrin], in the series on OVA exposed mice [2], the peribronchial eosinophil infiltration entry is listed as “decrease reached statistical significance”. In the series on IL-13 (FIG. 7b), the “IL-13 levels in BAL” value is “increased”. In addition, the “number of eosinophils in BAL” value with OVA exposed mice [1] (after allergen exposure, concentration not given, FIG. 1) is on record as “tendency to increase”. In addition, the peribronchial inflammation score entry in the series on OVA exposed mice [3] (concentration not given, FIG. 2) is listed as “did not reduce”.

As to 2-O-methyl βcyclodextrin [CRYSMEB], the “levels of IL-13 in whole lung protein extracts” value in the series with IL-13 (FIG. 11) is reported as “significantly decreased”. The Bronchoalveolar lavage eosinophilia result with OVA exposed mice [1] (Example 2, treated groups vs placebo) is recorded as “significantly decreased”. Besides, in the series with OVA exposed mice [1] (10 mM), the “Eosinophils (%) in BAL” value was found to be 8.84 ± 2.946 %, the “Epithelial cells (%) in BAL” value is given as 36.83 ± 5.644%, the “Lymphocytes (%) in BAL” value worked out at 0.214 ± 0.1079% and the “Macrophages (%) in BAL” value was determined as 52.714 ± 6.49%. In the series on OVA exposed mice [1] (10 mM), the “Neutrophils (%) in BAL” value amounted to 1.26 ± 0.4587% and the “Total cells (10^4/ml) in BAL” value was 131.93 ± 33.637 10^4/ml. Besides, in the series on mice (setting [6]), the “cellular composition of the bronchoalveolar lavage” value is given as “not significantly altered”; the “eosinophil and neutrophil counts in BAL” value is recorded as “no differences”. Further, in the series on mice (inhaled 20 mM), the “Eosinophils (%) in BAL” value came out at 0.0375 ± 0.0375%, the “Epithelial cells (%) in BAL” value turned out to be 29.9 ± 5.909%, the “Lymphocytes (%) in BAL” value came to 0.425 ± 0.1485% and the “Macrophages (%) in BAL” value worked out at 69.5 ± 5.956%. Besides, the “Neutrophils (%) in BAL” value in the series with mice (inhaled 20 mM) amounted to 0.0375 ± 0.1061%. For the same compound, in the series on mice (inhaled 50 mM), the “Eosinophils (%) in BAL” value worked out at 0.1125 ± 0.0789%, the “Epithelial cells (%) in BAL” value is 36.1375 ± 4.52%, the “Lymphocytes (%) in BAL” value was found to be 0.275 ± 0.1161% and the “Macrophages (%) in BAL” value was 63.1625 ± 4.695%. The “Neutrophils (%) in BAL” value in the series on mice (inhaled 50 mM) was 0.2 ± 0.3505%. Besides, in the series with mice (inhaled 75 mM), the “Eosinophils (%) in BAL” value was 0.0375 ± 0.0375%, the “Epithelial cells (%) in BAL” value was found to be 30.8875 ± 1.349%, the “Lymphocytes (%) in BAL” value was found to be 0.075 ± 0.0491% and the “Macrophages (%) in BAL” value turned out to be 68.9 ± 1.334%. In addition, the “Neutrophils (%) in BAL” value in the series on mice (inhaled 75 mM) came out at 0.0375 ± 0.1061%. Moreover, the peribronchial inflammation score result in the series on OVA exposed mice [3] (20 mM, compared to placebo, FIG. 9A) is listed as “decreased inflammation score”. The “methacholine-induced Penh increase” value with OVA exposed mice [4] (10 mM inhalation) is “reduced”. In addition, the responsiveness to methacholine entry with OVA exposed mice [4] (after allergen exposure, extent comparable to fluticasone) was “significantly reduced”.
